Assay results taken from patent US20150315218A1, “SALTS OF PRODRUGS OF PIPERAZINE AND SUBSTITUTED PIPERIDINE ANTIVIRAL AGENTS” (Bristol-Myers Squibb Company, priority 2004, published 2015).
Converted amounts (≈) assume the structure as drawn. Read-outs that look alike come from different tables or passages of the source.

Tests used:
[1] = Oral dosing studies of prodrugs Ie and If in rats (Table 47); assay type: in vivo, rat; settings: for parent molecule in plasma following PO dosing of prodrug: rats, oral dosing of prodrug Ie or If
Experimental: Prodrug Ie was dosed orally to rats using methodology similar to that described above for the other prodrugs. […] Prodrug If was dosed orally to rats using methodology similar to that described above for the other prodrugs.

[2] = Cytotoxicity assay (XTT dye reduction) in MT-2 cells; assay type: cell-based; settings: human, six days
Experimental: Cytotoxicity assays were conducted with the same MT-2 cells, using methodology well known in the art. […] 50 μl of XTT reagent (1 mg/ml 2,3-bis[2-methoxy-4-nitro-5-sulfophenyl]-2H-tetrazolium-5-carboxanilide, 10 μg/ml phenazine methosulfate dissolved in phosphate buffered saline) was added to each well and incubated for 3 hours. Color formation by actively respiring cells was quantitated in a plate reader at 450 nm, and used to determine a CC50.

[3] = test system: HIV-1 T-tropic strain LAI; assay: Antiviral assay: HIV-1 LAI infection of MT-2 cells, reverse transcriptase readout (EC50, Table 48); assay type: cell-based; settings: Human immunodeficiency virus 1, MT2, read-out: EC50-LAI
Description: The materials and experimental procedures used to assess the anti-HIV activity of the parent compounds which are generated from the prodrugs in vivo are described below:
• The human T cell line MT-2 and PM1 (AIDS Research and Reference Reagent Program, National Institutes of Health) were maintained and propagated in Medium RPMI-1640 (Invitrogen, Carlsbad, Calif.), containing 10% fetal Bovine serum. (FBS, Sigma, St. Louis, Mo.).
• Laboratory strains of HIV-1—the T-tropic strain LAI was obtained through the AIDS Research and Reference Reagent Program, National Institutes of Health. It was amplified in MT-2 cells and titered using a virus yield assay (2). Detection was achieved through use of a reverse transcriptase assay (3), adapted for use with a Scintillation Proximity detection protocol (1) (Amersham Biosciences, Piscataway, N.J.).
• 1. Compounds stocks were prepared by dissolving in DMSO to 30 mM. For dilution plates, compounds were serially diluted 3-fold into DMSO, using 96-well polypropylene plates, so that the concentrations were 100-fold greater than the final assay concentration. For antiviral and cytotoxicity assays, 2 μl was added per well (1% final DMSO concentration). • 2. Compounds were added from dilution plates to 96 well tissue culture plates, containing 100 μl Medium RPMI-1640, containing 10% fetal bovine serum at a concentration of <20 μM. • 3. For antiviral assays, cells were infected at a multiplicity of infection of 0.005. After 1 h at 37° C., infected cells were diluted to 200,000 cells per ml in Medium RPMI-1640, containing 10% fetal bovine serum. 100 μl of this solution was added per well, giving a final volume of 200 μl. • 4. Plates were incubated at 37° C. in a humidified CO2 incubator and harvested after 5 days. • 5. Viral infections were monitored by measuring reverse transcriptase activity in the supernatants of infected wells as described above. The percent inhibition for each compound was calculated by quantifying the readout level in cells infected in the presence of each compound as a percentage of that observed for cells infected in the absence of compound and subtracting such a determined value from 100. • 6. An EC50 provides a method for comparing the antiviral potency of the compounds of this invention. The effective concentration for fifty percent inhibition (EC50) was calculated with the Microsoft Excel Xlfit curve fitting software. For each compound, curves were generated from percent inhibition calculated at 8 different concentrations by using a four paramenter logistic model (model 205).

[4] = 2-week oral dose rat toxicology / TK study F; assay type: in vivo; settings: for AUC(0-t): Sprague-Dawley, rat, plasma, oral, dosages 200 mg/kg/day, read-out: AUC0-24 h on Day 14
Experimental: In the 2-week oral rat study F (n=six/sex/group), Compound IVe was administered at daily doses of 15, 75, or 200 mg/kg. […] On Day 14, AUC0-24 h values were slightly higher in females (≦644 μg*hr/ml) compared to males (526.88 μg*hr/ml) at dosages 200 mg/kg/day. The oral (PO) results from Study F are in Table 5.

[5] = IV and oral rat PK (MAP) studies A, B, C of phosphate prodrugs and parent studies A1, B1, C1; assay type: in vivo, Sprague-Dawley rats; settings: for In vivo conversion in Rats-iv (note 2) MAP study: dose equiv. to 1 mg/Kg of the parent; for In vivo conversion in Rats-iv (note 2) MAP study / In vivo conversion in Rats-oral (note 2) MAP study: full wording: Rapid generation of parent in plasma; for clearance / Vd / half-life: male, Sprague-Dawley, rat, 1 mg/kg; for clearance / Vd / half-life / AUC 0-24 h (μM * hr) / Cmax (uM) / Cp @ 24 hr p.o. (nM): rats; for clearance / Vd: prodrug IV equivalent to 1 mpk of parent; for clearance: read-out: CL i.v.; for Vd: read-out: Vss i.v.; for half-life: after IV prodrug dosing equivalent to 1 mpk of parent, read-out: T1/2 i.v. (converted); for half-life / AUC 0-24 h (μM * hr) / Cmax (uM) / Cp @ 24 hr p.o. (nM): analyte = label; for In vivo conversion in Rats-oral (note 2) MAP study: dose equiv. to 5 mg/Kg of the parent; for AUC 0-24 h (μM * hr) / Cmax (uM) / Cp @ 24 hr p.o. (nM): after PO prodrug dosing equivalent to 5 mpk of parent
Experimental: The rats for oral dosing studies were fasted overnight. […] The dosing solutions of all three prodrugs for both IV and oral administration were prepared in 100% normal saline at 1 mg/mL (dosing solution concentrations were parent compound equivalent). Plasma samples were collected in EDTA vacutainers over 24 hrs, and analyzed by LC/MS/MS for both the prodrugs and parent molecules. Pharmacokinetic analysis was performed on Kinetica™.
Plasma and tissue samples were collected and stored at −20° C. until analysis. […] Rats were fasted overnight in PO studies. […] In the PO studies, rats (n=3) received PO doses of 5 and 100 mg/kg.
Male Sprague-Dawley rats (300-350 g, Hilltop Lab Animals, Inc., Scottdale, Pa.) with cannulas implanted in the jugular vein and/or bile duct were used. The rats were fasted overnight in the PO pharmacokinetic studies. Blood samples of 0.3 ml were collected from the jugular vein in EDTA-containing microtainer tubes (Becton Dickinson, Franklin Lakes, N.J.), and centrifuged to separate plasma.

[6] = target: T1, alkaline phosphatase (human placenta, Sigma) (Homo sapiens, UniProt P05187); assay: In vitro conversion in alkaline phosphatase (Table 1, note 1); assay type: in vitro ADME; settings: ~0.2 mM prodrug, ~1.4 unit ALP, pH 8 Tris buffer; full wording: Complete and rapid conversion to parent without any intermediate formation
T1 construct: Qualitative in vitro studies using human placental alkaline phosphatase; purchased Sigma; host or cells: human placenta (as the result head says)
T1 sequence (P05187 23-506 limits assumed): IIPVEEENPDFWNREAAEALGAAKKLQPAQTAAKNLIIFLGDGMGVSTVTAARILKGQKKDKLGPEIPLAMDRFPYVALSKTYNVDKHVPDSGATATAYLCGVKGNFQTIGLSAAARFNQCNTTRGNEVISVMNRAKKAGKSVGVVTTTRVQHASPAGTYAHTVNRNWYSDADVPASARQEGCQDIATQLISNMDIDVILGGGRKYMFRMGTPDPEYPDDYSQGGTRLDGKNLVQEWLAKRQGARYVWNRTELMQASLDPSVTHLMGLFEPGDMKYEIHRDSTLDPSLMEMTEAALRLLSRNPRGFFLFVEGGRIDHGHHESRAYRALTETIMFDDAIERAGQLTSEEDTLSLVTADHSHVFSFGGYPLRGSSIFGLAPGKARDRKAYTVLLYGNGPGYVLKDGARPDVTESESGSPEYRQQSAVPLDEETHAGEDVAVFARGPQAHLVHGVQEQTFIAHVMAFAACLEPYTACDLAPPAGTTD

physchem = settings: pH 6.5, aqueous buffer

In the case of `COc1cnc(-n2cnc(C)n2)c2c1c(C(=O)C(=O)N1CCC(=C(C#N)c3ccccn3)CC1)cn2COP(=O)(OC(C)(C)C)OC(C)(C)C` [IIe], the “F (%) (calc on historical IV data for parent)” value ([1]; rat, diester prodrug IIe PO 7.0 mg/kg (IVe eq), PK of IVe only) is reported as 7.7% and the “Cp @ 24 hr p.o.” value ([1]; rat, diester prodrug IIe PO 7.0 mg/kg (IVe eq), PK of IVe only, 1/3 rats) is reported as 8.17 (1/3 rats) nM.
With `COc1cnc(-n2ccc(C)n2)c2[nH]cc(C(=O)C(=O)N3CCN(C(=O)c4ccccc4)[C@H](C)C3)c12` [IVd] the CC50 at 6 days [2] was > 10 µM and the EC50 [3] was < 1 µM.
With `COc1cnc(-n2cnc(C)n2)c2[nH]cc(C(=O)C(=O)N3CCC(=C(C#N)c4ccccn4)CC3)c12` [IVe, 2-(1-(2-(4-methoxy-7-(3-methyl-1H-1,2,4-triazol-1-yl)-1H-pyrrolo[2,3-c]pyridin-3-yl)-2-oxoacetyl)piperidin-4-ylidene)-2-(pyridin-2-yl)acetonitrile] the “parent molecule in plasma following PO dosing of prodrug” value [1] was “detected in the plasma”, the AUC(0-t) ([4]; female, females) was ≤ 644 µg·h/mL and the AUC(0-t) ([4]; male, males) was 527 µg·h/mL. The autoinduction or accumulation ([4]; toxicokinetic evaluations on days 1 and 14) was “no evidence of autoinduction or accumulation”.
With `O=C(C(=O)N1CCN(c2ncnc3ccccc23)CC1)c1c[nH]c2c(-n3ccnn3)ncc(F)c12` [IVf] the “parent molecule in plasma following PO dosing of prodrug” value [1] was “detected in the plasma”.
For `COc1cnc(OC)c2c1c(C(=O)C(=O)N1CCN(C(=O)c3ccccc3)CC1)cn2COP(=O)(O)O` [Ia], the “In vivo conversion in Rats-iv (note 2) MAP study” value [5] was “Rapid”, the clearance ([5]; plasma) was 16 ± 0.95 mL/min/kg and the Vd ([5]; plasma) was 0.095 ± 0.001 L/kg. For the same compound, the half-life ([5]; plasma, iv) was 8.4 ± 1.2 min, the “In vivo conversion in Rats-oral (note 2) MAP study” value [5] was “Rapid” and the “AUC 0-24 h (μM * hr)” value [5] was “LLQ”. The “Cmax (uM)” value [5] was “LLQ”, the “Cp @ 24 hr p.o. (nM)” value [5] was “LLQ” and the “In vitro conversion in Alkaline phosphatase (note 1)” value (from here on “In vitro conversion”) [6] was “Complete”. For the same compound, the solubility (physchem) was > 18000 µg/mL.
In the case of `O=C(C(=O)N1CCN(C(=O)c2ccccc2)CC1)c1cn(COP(=O)([O-])[O-])c2c(-n3ccnn3)ncc(F)c12.[Na+].[Na+]` [Ib], the “In vivo conversion in Rats-iv (note 2) MAP study” value [5] is reported as “Rapid”, the half-life ([5]; in vivo) is reported as 108 ± 72 min and the clearance ([5]; in vivo) is reported as 46 ± 10 mL/min/kg. The Vd ([5]; in vivo) was 0.97 ± 0.47 L/kg, the “In vivo conversion in Rats-oral (note 2) MAP study” value [5] was “Rapid” and the “AUC 0-24 h (μM * hr)” value [5] was “LLQ”. The “Cmax (uM)” value [5] was “LLQ”, the “Cp @ 24 hr p.o. (nM)” value [5] was “LLQ” and the “In vitro conversion” value [6] was “Complete”. The solubility (physchem) was > 8000 µg/mL.
In the case of `COc1cnc(-n2cnc(C)n2)c2c1c(C(=O)C(=O)N1CCN(C(=O)c3ccccc3)CC1)cn2COP(=O)(O)O` [Ic], the “In vitro conversion” value [6] is reported as “Complete” and the solubility (physchem) is reported as 1000 µg/mL (≈ 1710 µM).
